Drawing on ChEMBL document CHEMBL1909046, “DrugMatrix in vitro pharmacology data”, this text covers IC50 and Ki for 22 compounds.

Test [1] has as its target T1, Alpha-1B adrenergic receptor (Rattus norvegicus, UniProt P15823).
T1 sequence (P15823 whole entry): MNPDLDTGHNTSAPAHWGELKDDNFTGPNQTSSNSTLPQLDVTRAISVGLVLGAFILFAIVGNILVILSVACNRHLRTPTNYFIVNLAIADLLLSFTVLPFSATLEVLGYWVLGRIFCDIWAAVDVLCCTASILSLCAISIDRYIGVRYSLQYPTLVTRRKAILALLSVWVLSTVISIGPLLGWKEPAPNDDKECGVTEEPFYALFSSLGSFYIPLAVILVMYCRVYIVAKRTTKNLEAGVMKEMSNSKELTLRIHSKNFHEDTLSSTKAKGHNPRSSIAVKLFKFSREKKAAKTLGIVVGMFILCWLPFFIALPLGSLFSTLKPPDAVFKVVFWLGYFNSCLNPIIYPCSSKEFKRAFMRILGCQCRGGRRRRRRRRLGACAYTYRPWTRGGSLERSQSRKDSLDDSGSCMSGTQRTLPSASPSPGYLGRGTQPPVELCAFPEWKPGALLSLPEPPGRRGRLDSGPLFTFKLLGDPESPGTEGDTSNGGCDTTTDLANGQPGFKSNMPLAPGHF
In words: DRUGMATRIX: Alpha-1B adrenergic receptor radioligand binding (ligand: prazosin). The class given is cell membranes, Wistar, Liver, Membrane. As to conditions: Not Active = under 50% inhibition at 10 µM.

Test [2] in a line: DRUGMATRIX: Atrial Natriuretic Factor (ANF) radioligand binding (ligand: [125I] ANF (rat)). Type of test: cell membranes, Cavia porcellus, Dunkin-Hartley, Adrenal gland, Membrane. To be noted: Not Active = under 50% inhibition at 10 µM.
The target in test [3] is 5-hydroxytryptamine receptor 6 (Homo sapiens, UniProt P50406). The class given is cell membranes, HeLa, Membrane. As to conditions: hela. Also: in other assays of this panel Not Active means under 50% inhibition at 10 µM.
The nature of test [4]: DRUGMATRIX: Glutamate, AMPA radioligand binding (ligand: [3H] AMPA). The class given is cell membranes, Rattus norvegicus, Wistar, Cerebral cortex, Membrane. As to conditions: Not Active = under 50% inhibition at 10 µM.
The target of the next test is T2, Neutrophil elastase (Homo sapiens, UniProt P08246).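 Also: inhibition of neutrophil elastase enzyme activity, measured with a p-nitroanilide-linked peptide substrate; in other assays of this panel Not Active means under 50% inhibition at 10 µM.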
T2 sequence (P08246 whole entry): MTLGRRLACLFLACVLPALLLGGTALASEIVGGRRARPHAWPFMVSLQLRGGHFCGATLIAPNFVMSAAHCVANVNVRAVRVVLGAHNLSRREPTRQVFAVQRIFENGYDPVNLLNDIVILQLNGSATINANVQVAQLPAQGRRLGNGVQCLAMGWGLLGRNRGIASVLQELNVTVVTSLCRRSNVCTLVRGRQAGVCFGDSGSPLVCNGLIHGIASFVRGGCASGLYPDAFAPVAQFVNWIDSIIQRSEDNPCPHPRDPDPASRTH
Type of test: tissue-based.

Test [5] deals with Tyrosine-protein kinase Fyn (Homo sapiens, UniProt P06241). The experiment in a line: biochemical. The class given is cell-based, Insect cells.
Sequence of Tyrosine-protein kinase Fyn (P06241 whole entry): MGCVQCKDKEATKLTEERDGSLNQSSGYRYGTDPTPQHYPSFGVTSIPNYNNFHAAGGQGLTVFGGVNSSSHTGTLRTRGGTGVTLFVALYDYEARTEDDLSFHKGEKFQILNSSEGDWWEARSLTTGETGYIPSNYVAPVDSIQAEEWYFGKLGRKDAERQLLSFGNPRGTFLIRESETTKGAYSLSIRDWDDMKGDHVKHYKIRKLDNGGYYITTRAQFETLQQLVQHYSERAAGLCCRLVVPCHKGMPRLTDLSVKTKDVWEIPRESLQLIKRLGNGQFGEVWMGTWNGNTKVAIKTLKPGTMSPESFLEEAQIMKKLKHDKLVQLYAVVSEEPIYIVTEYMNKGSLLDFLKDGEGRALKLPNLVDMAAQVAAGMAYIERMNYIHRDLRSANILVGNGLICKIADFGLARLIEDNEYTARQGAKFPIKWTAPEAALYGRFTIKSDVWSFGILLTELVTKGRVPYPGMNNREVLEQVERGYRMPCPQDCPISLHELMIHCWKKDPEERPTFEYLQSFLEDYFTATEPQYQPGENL

Sequence of 5-hydroxytryptamine receptor 6 (P50406 whole entry): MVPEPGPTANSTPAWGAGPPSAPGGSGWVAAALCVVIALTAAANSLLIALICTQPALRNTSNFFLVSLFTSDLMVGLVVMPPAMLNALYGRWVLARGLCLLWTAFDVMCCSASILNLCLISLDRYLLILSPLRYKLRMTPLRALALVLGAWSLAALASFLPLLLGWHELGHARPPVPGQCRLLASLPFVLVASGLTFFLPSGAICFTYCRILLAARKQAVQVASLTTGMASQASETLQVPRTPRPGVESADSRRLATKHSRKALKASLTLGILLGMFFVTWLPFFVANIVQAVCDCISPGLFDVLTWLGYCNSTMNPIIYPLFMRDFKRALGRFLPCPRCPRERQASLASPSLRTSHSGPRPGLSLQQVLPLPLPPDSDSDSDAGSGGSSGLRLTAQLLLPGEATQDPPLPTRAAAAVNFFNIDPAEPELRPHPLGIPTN

What is called IC50 is the concentration that inhibits the measured activity by half. The Ki is the dissociation constant of the complex between target and ligand, obtained from inhibition or displacement. In the case of `N=C(N)NC(=O)Cc1c(Cl)cccc1Cl` [GUANFACINE], the IC50 entry (in test [1]; in test [2]; in test [3]; in test [4]; against Neutrophil elastase; in test [5] (insect cells)) was “Not Active” each time. The Ki result in test [2] and in test [4] was “Not Active” throughout.

For the compound `NC(=O)C[S+]([O-])C(c1ccccc1)c1ccccc1` (stereo unspecified) [MODAFINIL], the IC50 result (in test [1]; in test [2]; in test [3]; in test [4]; on Neutrophil elastase; in test [5] (insect cells)) was “Not Active” each time. The Ki result in test [2] and in test [4] was “Not Active” throughout.

For `CC(C)(C)NC(=O)[C@H]1CC[C@H]2[C@@H]3CC[C@H]4NC(=O)C=C[C@]4(C)[C@H]3CC[C@]12C` [FINASTERIDE], the IC50 result (in test [1]; in test [2]; in test [3]; in test [4]; on Neutrophil elastase; in test [5] (insect cells)) was “Not Active” in each case. The Ki result in test [2] and in test [4] was “Not Active” in each case.

`CC(C)NNC(=O)c1ccncc1` [IPRONIAZID]: the IC50 entry (in test [1]; in test [2]; in test [3]; in test [4]; on Neutrophil elastase; in test [5] (insect cells)) was “Not Active” throughout. Also, the Ki result in test [2] and in test [4] was “Not Active” throughout.

With GRAMICIDIN, the IC50 entry is “Not Active” in test [1]; “Not Active” in test [2]; “Not Active” in test [3]; “Not Active” in test [4]; “Not Active” against Neutrophil elastase; 3.33 µM in test [5] (insect cells, read-out: IC50). Also, the Ki entry (in test [1]; in test [2]; in test [3]; in test [4]; at Neutrophil elastase) was “Not Active” in each case.

For `CC(=O)[C@@]1(O)CC[C@H]2[C@@H]3CCC4=CC(=O)CC[C@]4(C)[C@H]3CC[C@@]21C` [HYDROXYPROGESTERONE], the IC50 result (in test [1]; in test [2]; in test [3]; in test [4]; against Neutrophil elastase; in test [5] (insect cells)) was “Not Active” each time. In addition, the Ki result in test [2] and in test [4] was “Not Active” each time.

`O=C(N/N=C/c1ccc([N+](=O)[O-])o1)c1cc([N+](=O)[O-])cc([N+](=O)[O-])c1O` [NIFURSOL]: the IC50 result (in test [1]; in test [2]; in test [3]; in test [4]; against Neutrophil elastase; in test [5] (insect cells)) was “Not Active” throughout. Also, the Ki entry in test [2] and in test [4] was “Not Active” throughout.

As for `CC(C)NCC(O)COc1cccc2[nH]ccc12` (stereo unspecified) [PINDOLOL], the IC50 result (in test [1]; in test [2]; in test [3]; in test [4]; on Neutrophil elastase; in test [5] (insect cells)) was “Not Active” throughout. For the same compound, the Ki entry in test [2] and in test [4] was “Not Active” in each case.

Turning to `Oc1cccc(O)c1O` [PYROGALLOL], the IC50 result in test [1] was “Not Active”; in test [2], “Not Active”; in test [3], “Not Active”; in test [4] it was “Not Active”; at Neutrophil elastase, “Not Active”; in test [5] (read-out: IC50), 0.997 µM. The Ki result in test [2] and in test [4] was “Not Active” each time.

With `NNc1nncc2ccccc12` [HYDRALAZINE], the IC50 entry (in test [1]; in test [2]; in test [3]; in test [4]; on Neutrophil elastase; in test [5] (insect cells)) was “Not Active” each time. For the same compound, the Ki entry in test [2] and in test [4] was “Not Active” throughout.

Consider `C[C@]12C=CC(=O)C=C1CC[C@@H]1[C@@H]2[C@@H](O)C[C@@]2(C)[C@H]1CC[C@]2(O)C(=O)CO` [PREDNISOLONE], for which the IC50 entry (in test [1]; in test [2]; in test [3]; in test [4]; at Neutrophil elastase; in test [5] (insect cells)) was “Not Active” each time. Besides, the Ki entry in test [2] and in test [4] was “Not Active” throughout.

In the case of `NCCCC(O)(P(=O)(O)O)P(=O)(O)O` [ALENDRONIC ACID], the IC50 result (in test [1]; in test [2]; in test [3]; in test [4]; against Neutrophil elastase; in test [5] (insect cells)) was “Not Active” each time. For the same compound, the Ki entry in test [2] and in test [4] was “Not Active” throughout.

Take `O=C1O[C@H]([C@@H](O)CO)C(O)=C1O` [ASCORBIC ACID]: the IC50 result (in test [1]; in test [2]; in test [3]; in test [4]; against Neutrophil elastase; in test [5] (insect cells)) was “Not Active” throughout. The Ki result in test [2] and in test [4] was “Not Active” throughout.

`C[n+]1ccccc1/C=N/O.[Cl-]` [PRALIDOXIME CHLORIDE]: the IC50 entry (in test [1]; in test [2]; in test [3]; in test [4]; against Neutrophil elastase; in test [5] (insect cells)) was “Not Active” each time. In addition, the Ki result in test [2] and in test [4] was “Not Active” throughout.

In the case of `COc1ccc2c3c1O[C@H]1C[C@@H](O)C=C[C@@]31CCN(C)C2` [GALANTAMINE], the IC50 entry (in test [1]; in test [2]; in test [3]; in test [4]; against Neutrophil elastase; in test [5] (insect cells)) was “Not Active” in each case. The Ki result in test [2] and in test [4] was “Not Active” throughout.

Consider `COC1=C(OC)C(=O)C(CCCCCCCCCCO)=C(C)C1=O` [IDEBENONE], for which the IC50 result (in test [1]; in test [2]; in test [3]; in test [4]; on Neutrophil elastase; in test [5] (insect cells)) was “Not Active” throughout. Further, the inhibition constant Ki entry in test [2] and in test [4] was “Not Active” in each case.

As for `CCC1(CCC(C)C)C(=O)NC(=O)NC1=O` [AMOBARBITAL], the IC50 entry (in test [1]; in test [2]; in test [3]; in test [4]; against Neutrophil elastase; in test [5] (insect cells)) was “Not Active” each time. Besides, the Ki entry in test [2] and in test [4] was “Not Active” throughout.

As to `COc1ccc2[nH]cc(CCNC(C)=O)c2c1` [MELATONIN], the IC50 entry (in test [1]; in test [2]; in test [3]; in test [4]; on Neutrophil elastase; in test [5] (insect cells)) was “Not Active” in each case. The Ki entry in test [2] and in test [4] was “Not Active” in each case.

Regarding `O=C/C=C/c1ccccc1`, the IC50 entry (in test [1]; in test [2]; in test [3]; in test [4]; against Neutrophil elastase; in test [5] (insect cells)) was “Not Active” throughout. Moreover, the Ki entry in test [2] and in test [4] was “Not Active” throughout.

For `CN(C)CC[C@@H](c1ccc(Cl)cc1)c1ccccn1` [DEXCHLORPHENIRAMINE], the IC50 was 15.6 µM in test [1] (read-out: IC50); “Not Active” in test [2]; “Not Active” in test [3]; “Not Active” in test [4]; “Not Active” at Neutrophil elastase; “Not Active” in test [5] (insect cells). Further, the Ki is 8.61 µM in test [1] (read-out: Ki), “Not Active” in test [2] and “Not Active” in test [4].

As for `COc1ccc2cc3[n+](cc2c1OC)CCc1cc2c(cc1-3)OCO2.[Cl-]` [BERBERINE CHLORIDE], the IC50 entry (in test [1]; in test [2]; in test [3]; in test [4]; against Neutrophil elastase; in test [5] (insect cells)) was “Not Active” throughout. The Ki result in test [2] and in test [4] was “Not Active” throughout.

Turning to `OC(CCCN1CCCCC1)(c1ccccc1)c1ccccc1` [DIPHENIDOL], the IC50 in test [1] (read-out: IC50) is 4.76 µM; in test [2], “Not Active”; in test [3], “Not Active”; in test [4], “Not Active”; at Neutrophil elastase, “Not Active”; in test [5] (insect cells), “Not Active”. In addition, the figures for the Ki in test [1] (read-out: Ki), in test [2] and in test [4] were 2.64 µM, “Not Active” and “Not Active”, respectively.
